According to patent US7115721B2, “Microorganism, its product and utilization thereof” (Astellas Pharma Inc., priority 2002, dated 2006):
≈ marks a conversion by molar mass, not a printed value. Read-outs that look alike come from different tables or passages of the source.

Experiments:
[1] = target: Tyrosinase originating from mushroom; assay: Inhibitory activity to tyrosinase originating from mushroom; format: biochemical; details: L-dopa substrate, pH 6.8, 25° C., 10 minutes
Protocol: Inhibitory Activity to Tyrosinase Originating from Mushroom Tyrosinase originating from mushroom (Sigma company) was dissolved in a 0.05 M phosphate buffer (pH 6.8) to a concentration of 20 U/ml. L-dopa was adjusted to a concentration of 0.3 mg/ml with a 0.05 M phosphate buffer (pH 6.8). A 96-well plate was charged with 30 μl of the L-dopa solution and 30 μl of solutions of the compound (I) of the present invention at various concentrations, immediately followed by mixing with 30 μl of the tyrosinase solution originating from mushroom. After incubation at 25° C. for 10 minutes, the absorbance at 450 nm was measured using a microplate reader.

[2] = target: T1, tyrosinase originating from B16 melanoma (Mus musculus, UniProt P11344); assay: Inhibitory activity to tyrosinase originating from B16 melanoma; format: biochemical; details: crude enzyme solution, L-dopa substrate, pH 6.8, 25° C., two hours
T1 construct: The supernatant liquid was collected and preserved in ice until the time it was used (crude enzyme solution); endogenous in cells; host or cells: B16 melanoma cells, homogenate supernatant (crude enzyme solution)
T1 sequence (P11344 19-533): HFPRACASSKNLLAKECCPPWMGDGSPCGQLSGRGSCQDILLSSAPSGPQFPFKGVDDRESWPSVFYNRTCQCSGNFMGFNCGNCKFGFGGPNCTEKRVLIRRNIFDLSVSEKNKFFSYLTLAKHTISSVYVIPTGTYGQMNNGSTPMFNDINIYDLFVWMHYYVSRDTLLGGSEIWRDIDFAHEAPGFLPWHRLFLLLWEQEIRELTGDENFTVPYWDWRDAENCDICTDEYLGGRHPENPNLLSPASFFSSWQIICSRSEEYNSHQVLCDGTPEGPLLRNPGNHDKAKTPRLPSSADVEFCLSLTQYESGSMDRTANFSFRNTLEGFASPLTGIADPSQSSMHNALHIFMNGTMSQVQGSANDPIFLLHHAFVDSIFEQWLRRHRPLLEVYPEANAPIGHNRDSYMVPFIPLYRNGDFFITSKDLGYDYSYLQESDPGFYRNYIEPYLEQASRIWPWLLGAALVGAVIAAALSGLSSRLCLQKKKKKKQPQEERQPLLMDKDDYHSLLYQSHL
Protocol: Inhibitory Activity to Tyrosinase Originating from B16 Melanoma
(§1) About 2.0×10^5/ampoule B16 melanoma cell strain preserved in a frozen state in liquid nitrogen was dissolved in a water bath at 37° C. and immediately suspended in 10 ml of a culture medium. After centrifugation at 800 rpm for five minutes, the supernatant liquid was discarded and the cells were suspended in 10 ml of a fresh culture medium. The suspension was again centrifuged under the same conditions, the supernatant liquid was discarded, and the cells were again suspended in a fresh culture medium.
About 4.0×10^5 cells were seeded in a 75 cm^2 flask. The cells were cultured at 37° C. in a 5% CO2 atmosphere for one week while replacing the medium every 2–3 days. The culture medium in which the cells have grown to bring the medium into a subconfluent state was discarded. The surface of the cultured cells was washed with PBS(−), following which the cells were stripped using 0.25% trypsin. A medium containing serum was added to terminate the trypsin reaction. After loosening the cells by pipetting, the cell suspension was transferred to a centrifugal tube. […] The number of cells was counted using a cytometer. […]
L-dopa was adjusted to a concentration of 0.8 mg/ml with the 0.05 M phosphate buffer (pH 6.8). […] Then, the absorption at 475 nm was measured.

[3] = system: B16 melanoma (B-16/2D2 cells); assay: Inhibitory activity to melanogenesis of B16 melanoma (extracellular and intracellular melanin, amount of proteins); format: cell-based; details: for IC50: Mus musculus, B16, 120 h
Protocol: Inhibitory Activity to Melanogenesis of B16 Melanoma
as §1
About 4.0×10^5 cells were seeded in a 75 cm^2 flask. The cells were cultured at 37° C. in a 5% CO2 atmosphere for one week while replacing the medium every 2–3 days. The culture medium in which the cells have grown to bring the medium into a subconfluent state was discarded. The surface of the cultured cells was washed with PBS(−), following which the cells were stripped using 0.25% trypsin. A medium containing serum was added to terminate the trypsin reaction. After loosening the cells by pipetting, the cell suspension was transferred to a centrifugal tube. After centrifugation at 800 rpm for five minutes, the supernatant liquid was discarded and the cells were suspended in a fresh culture medium (not containing phenol red). The number of cells was counted using a cytometer.
The cell suspension was diluted with a medium (not containing phenol red) to make the cell concentration 2×10^5 cells/ml. The resulting suspension was seeded in a 96-well plate in an amount of 100 μl/well. The cells were incubated at 37° C. in a 5% CO2 atmosphere for one day. Solutions of the compound (I) of the present invention at various concentrations were prepared in a medium (not containing phenol red). The resulting solutions were added to a 96-well plate in an amount of 100 μl/well. The cells were incubated at 37° C. in a 5% CO2 atmosphere for five days and evaluated according to the following method.
1. Amount of Extracellular Melanin
The culture medium was transferred to an assay plate in an amount of 150 μl/well while taking care so that foam was not produced to measure OD450 using a microplate reader.
2. Amount of Intracellular Melanin
The plate containing the cells was inverted to discard the remaining culture medium. 0.1 N NaOH-0.1% Triton X-100 was added in an amount of 150 μl/well to dissolve the cells by pipetting. The culture medium was transferred to an assay plate in an amount of 100 μl/well to measure OD450 using a microplate reader.
Distilled water was added to the assay plate in an amount of 156 μl/well. Then, 4 μl/well of the cell solution remaining after measuring the amount of intracellular melanin was added. Next, 40 μl/well of a Bio-rad protein assay die solution was added, followed by shaking for two minutes. After allowing to stand for five minutes, OD590 was measured using a microplate reader.

[4] = system: melanin pigmentation of skin after exposure to sunlight; assay: Whitening effect on skin of subjects exposed to sunlight; format: in vivo, human; details: for Whitening effect: applied morning and evening over four weeks, 20 subjects
Protocol: The whitening effect of the compound (I) of the present invention was measured according to the following method. 20 subjects were exposed to sunlight for […] from 11:00 a.m. to 1:00 p.m. over two days in summer. Five days after the exposure to sunlight, a water phase and an alcohol phase having compositions respectively shown in FIG. 5 and FIG. 6 were mixed and dissolved, and the solution was applied to the skin on the medial side of the upper arm of each exposed subject once for every morning and evening over four weeks. [table] [table] After four weeks, the whitening effect was judged for each subject. The effect was judged according to the following standards.

[5] = concentration in which whitening actions were clearly exhibited

## [C-]#[N+]/C=C/c1ccc(O[C@@H]2O[C@@H](C)[C@H](O)[C@@H](O)[C@H]2O)cc1 [Compound (I), (E)-4-(2-isocyanovinyl)phenyl α-L-rhamnopyranoside]
[1]
  IC50 Mushroom tyrosinase: 0.0019 µg/mL (≈ 0.00652 µM)
[2]
  IC50: 1.85 nM
[3]; read-out: IC50 Extracellular melanogenesis
  IC50: 0.052 µg/mL (≈ 0.179 µM)
[3]; read-out: IC50 Intracellular melanogenesis
  IC50: 0.074 µg/mL (≈ 0.254 µM)
[3]; read-out: IC50 Protein synthesis
  IC50: 0.9 µg/mL (≈ 3.09 µM)
[3]; [5]
  Effects on the amount of proteins in the cells: nor were there any effects
  Effects on the number of grown cells: nor were there any effects
  Morphological changes in the cells by microscopic inspection: no morphological changes
[4]; 0.1 wt % test agent
  Whitening effect: Good (50–80% of subjects exhibited a complete response or partial response)
[4]; 0.3 wt % test agent
  Whitening effect: Good (50–80% of subjects exhibited a complete response or partial response)
[4]; topical application over four weeks in subjects
  Abnormalities of the skin (erythema, edema) or side effects: neither abnormalities of the skin, such as erythema or edema, nor any side effects

## Oc1ccc(O)cc1 [Hydroquinone, reference compound]
[4]; 1.0 wt % test agent
  Whitening effect: Good (50–80% of subjects exhibited a complete response or partial response)

## O=c1cc(CO)occ1O [Kojic acid, reference compound]
[4]; 1.0 wt % test agent
  Whitening effect: Fair (30–50% of subjects exhibited a complete response or partial response)
